Source: paper PMC11062922 (Nature Chemical Biology, 2023)

Experiments:
ADCK1 = target: T1, ADCK1 (Homo sapiens, UniProt Q86TW2); assay: Kinobeads competition binding: ADCK1; conditions: target ADCK1
T1 construct: endogenous in cells
T1 sequence (Q86TW2 1-530): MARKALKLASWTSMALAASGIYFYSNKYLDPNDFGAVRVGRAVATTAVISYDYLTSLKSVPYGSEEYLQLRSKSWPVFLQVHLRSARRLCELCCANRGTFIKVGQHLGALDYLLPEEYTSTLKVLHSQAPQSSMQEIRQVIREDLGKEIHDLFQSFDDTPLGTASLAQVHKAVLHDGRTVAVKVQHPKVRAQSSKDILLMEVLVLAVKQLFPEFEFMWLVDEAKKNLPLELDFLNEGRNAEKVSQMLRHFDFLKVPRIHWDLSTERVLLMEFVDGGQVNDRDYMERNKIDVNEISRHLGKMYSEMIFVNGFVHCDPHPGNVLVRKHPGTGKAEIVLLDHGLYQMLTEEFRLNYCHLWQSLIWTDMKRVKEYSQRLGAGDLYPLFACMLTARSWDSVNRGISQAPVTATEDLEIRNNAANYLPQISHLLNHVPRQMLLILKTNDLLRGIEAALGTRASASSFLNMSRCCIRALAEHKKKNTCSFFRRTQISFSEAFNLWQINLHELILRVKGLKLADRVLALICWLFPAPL
Text: Supplement 41589_2023_1459_MOESM4_ESM.xlsx, sheet "CATDS matrix" | column: ADCK1

PIK3CB = assay: Kinobeads competition binding: PIK3CB; set-up: species or system human; conditions: target PIK3CB
CDK7 = target: T2, CDK7 (Homo sapiens, UniProt P50613); assay: Kinobeads competition binding: CDK7; conditions: target CDK7
T2 construct: endogenous in cells

MAPK11 = assay: Kinobeads competition binding: MAPK11; set-up: species or system human; conditions: target MAPK11
MAP3K11 = assay: Kinobeads competition binding: MAP3K11; set-up: species or system human; conditions: target MAP3K11
MAP2K4 = assay: Kinobeads competition binding: MAP2K4; set-up: species or system human; conditions: target MAP2K4
LCK = assay: Kinobeads competition binding: LCK; set-up: species or system human; conditions: target LCK
ADRBK1 = assay: Kinobeads competition binding: ADRBK1; set-up: species or system human; conditions: target ADRBK1
ARAF = assay: Kinobeads competition binding: ARAF; set-up: species or system human; conditions: target ARAF
[1] = system: phosphorylation sites in RKO cells; assay: Drug-perturbed phosphoproteome analysis in RKO cells; format: cell-based, human; conditions: RKO cells, 1 µM for 1 hour
Text: To be able to measure PKN3 activity in cells, bona fide substrates of the kinase would be needed but no such substrate has been conclusively validated yet. In search for such candidates, we compared the phosphoproteomes of RKO cells (human colorectal cancer cells expressing high PKN3 levels according to ProteomicsDB[53]) in response to the same three compounds (that only share PKN3 as a target), as well as THZ1 (a covalent inhibitor for which PKN3 is a reported off-target[51]) and in response to siRNA-mediated knockdown of PKN3 (Extended Data Fig. 9a,b). […] The respective numbers were far smaller for GSK949675A, GSK902056A (all four drugs used at 1 µM for 1 hour) or the siRNA experiment (48 h of knockdown; Fig. 5d, Extended Data Fig. 9d and Supplementary Table 5). Successful PKN3 knockdown (89 and 92% for 1 and 3 nM siRNA, respectively) was confirmed by parallel reaction monitoring (a quantitative mass spectrometry-based protein expression assay; Extended Data Fig. 10a).
For global phosphoproteomic analysis of PKN3 inhibitors, RKO cells were treated with 1 µM GSK949675A, THZ1, GSK902056A, SB-476429A or DMSO for 1 h in four biological replicates or PKN3 were knocked down as described. After treatment, cells were washed twice with PBS and lyzed by adding 300 µl of lysis buffer (40 mM Tris-HCl pH 7.6, 8 M Urea, EDTA-free protease inhibitor complete mini and phosphatase inhibitor cocktail). Lysates were sonicated (ten cycles, 30 s on, 30 s pause, at 4 °C) and subsequently cleared by centrifugation for 20 min at 21,000g at 4 °C. Protein concentration was determined by Bradford assay and 300 µg protein per condition was digested. After reduction with 10 mM DTT and alkylation of cysteine residues with 50 mM chloroacetamide, the Urea concentration was reduced to 1.5 M by adding […] of 40 mM Tris/HCl pH 7.6. Trypsin was added to a protease-to-protein ratio of 1:50 and digestion was performed over night at 37 °C and 700 r.p.m. on a thermoshaker. Samples were cooled down to room temperature and acidified to a pH < 3 with 0.5% trifluoroacetic acid (TFA) and desalted using 50 mg SepPak columns (Waters; wash solvent 0.07% TFA in deionized water; elution solvent 0.07% TFA, 50% ACN). Subsequently, samples were frozen at −80 °C and dried by vacuum centrifugation. Peptide concentrations were determined by NanoDrop 2000 spectrophotometer and peptide amounts were adjusted. Dried peptides were labeled with TMT6plex as published previously. […] Phosphopeptides were enriched using column based Fe-IMAC as described previously. Subsequently, phosphopeptides were separated into six fractions using high pH reversed-phase stage tips as described before. Samples were dried by vacuum centrifugation.
Nanoflow LC–MS/MS measurement of TMT-labeled phosphopeptides was performed using a Dionex Ultimate3000 nano HPLC coupled online to an Orbitrap Fusion Lumos Tribride (Thermo Fisher Scientific) mass spectrometer. Peptides were delivered to a trap column (75 μm × 2 cm, packed in house with 5 μm C18 resin; Reprosil-Pur AQ, Dr. Maisch) and washed for 10 min with 0.1% FA at a flow rate of 5 μl min^−1. […] MS1 spectra were recorded in the Orbitrap from 360 to 1,300 m/z at a resolution of 60,000 using an AGC target value of 4 × 10^5 charges and a maximum injection time of 20 ms. MS2 spectra were recorded in the Orbitrap at 15,000 resolution after HCD fragmentation using 35% NCE, an AGC target value of 5 × 10^4, maximum injection time of 22 ms and an isolation width of 0.7 m/z. The first mass was fixed to 100 m/z. The number of MS2 spectra was limited by a top ten method. For TMT quantification, an additional MS3 spectrum was acquired in the Orbitrap over a scan range of 100–1,000 m/z at 15,000 resolution (AGC of 1 × 10^5, maximum injection time of 50 ms). For this, fragment ions were selected by multi-notch isolation in the Quadrupole, allowing a maximum of ten notches and subsequently fragmentation by HCD at 55% NCE. Dynamic exclusion was set to 90 s. […]

T2 sequence (P50613 whole entry): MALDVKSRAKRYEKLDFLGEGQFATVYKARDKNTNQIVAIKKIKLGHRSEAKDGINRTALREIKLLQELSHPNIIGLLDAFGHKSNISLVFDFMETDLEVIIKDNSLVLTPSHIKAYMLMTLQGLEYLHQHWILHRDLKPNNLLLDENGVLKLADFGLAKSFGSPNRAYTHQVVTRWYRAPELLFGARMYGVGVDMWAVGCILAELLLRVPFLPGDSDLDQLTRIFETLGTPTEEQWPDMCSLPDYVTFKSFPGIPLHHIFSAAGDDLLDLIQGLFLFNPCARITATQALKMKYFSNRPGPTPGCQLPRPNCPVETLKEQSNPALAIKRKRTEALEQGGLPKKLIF

Row | SMILES | CATDS (ADCK1) | CATDS (PIK3CB) | CATDS (CDK7) | CATDS (MAPK11) | CATDS (MAP3K11) | CATDS (MAP2K4) | CATDS (LCK) | CATDS (ADRBK1) | CATDS (ARAF) | number of perturbed phosphorylation sites [1] | PKN3 activation loop p sites (S544 and T550) [1]
1 | CCN1CCN(Cc2ccc(Nc3ncc(F)c(-c4cc(F)c5nc(C)n(C(C)C)c5c4)n3)nc2)CC1 [Abemaciclib] | 0.02486 | 0 | 0 | 0 | 0 | 0 | 0 | 0 | 0 |  | 
2 | CCn1c(-c2nonc2N)nc2c(C#CC(C)(C)O)nc(OCCN)cc21 [GSK902056A] |  |  |  |  |  |  |  |  |  | far smaller | 
3 | CN(C)C/C=C/C(=O)Nc1cc2c(Nc3ccc(F)c(Cl)c3)ncnc2cc1O[C@H]1CCOC1 [Afatinib] | 0 |  |  |  |  |  |  |  | 0 |  | 
4 | CCn1c(-c2nonc2N)nc2c(C#CC(C)(C)O)nc(OCCNC)cc21 [GSK949675A] |  |  |  |  |  |  |  |  |  | far smaller | 
5 | NCc1ccc(-c2nc(-c3ccncc3)c(-c3ccc(Cl)c(O)c3)[nH]2)cc1 [SB-476429-A] |  |  |  |  |  |  |  |  |  | a large number of p sites | substantial reduction
6 | CCc1cc2c(cc1N1CCC(N3CCOCC3)CC1)C(C)(C)c1[nH]c3cc(C#N)ccc3c1C2=O [Alectinib] | 0 | 0 | 0 | 0 | 0 | 0 | 0 | 0 | 0 |  | 
7 | Nc1ncnc2[nH]c(-c3ccccc3)nc12 [AH5015_KCGS] | 0 | 0 | 0.1088 | 0 | 0 | 0 | 0 | 0 | 0 |  | 
8 | N#CC1(c2ccc(NC(=O)c3cccnc3NCc3ccncc3)cc2)CCCC1 [Apatinib] | 0 | 0 | 0 | 0 | 0 | 0 | 0 | 0 | 0 |  | 
